Assay results reported in PubChem BioAssay AID1845208 (Molecular Pharmacology Branch, DTP, NCI, 2023).

Tested on: NCI-H196 SCLC complex tumor spheroid viability
Assay: Anticancer human tumor NCI-H196 cell line growth inhibition;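 further: spheroids exposed to compounds for 7 days before readout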;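 on viability, T/C: 100% = DMSO vehicle control wells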
Settings: for IC50: curve of first compound; for viability, T/C: stronger effect = lower value
Method in brief: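 Single agents and combinations were tested on spheroids built from tumor cells plus HUVEC and hMSC, at half-log dilutions starting at or near clinical Cmax, else 10 microM; final DMSO 0.25% (v/v).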

[1] = second compound 30 pM, first compound 0.0316 µM
[2] = second compound 30 pM, first compound 0.1 µM
[3] = second compound 30 pM, first compound 0.316 µM
[4] = second compound 30 pM, first compound 1 µM
[5] = second compound 30 pM, first compound 3.16 µM
[6] = second compound 30 pM, first compound 10 µM
[7] = second compound 94.9 pM, first compound 0.0316 µM
[8] = second compound 94.9 pM, first compound 0.1 µM
[9] = second compound 94.9 pM, first compound 0.316 µM
[10] = second compound 94.9 pM, first compound 1 µM
[11] = second compound 94.9 pM, first compound 3.16 µM
[12] = second compound 94.9 pM, first compound 10 µM
[13] = second compound 0.0003 µM, first compound 0.0316 µM
[14] = second compound 0.0003 µM, first compound 0.1 µM
[15] = second compound 0.0003 µM, first compound 0.316 µM
[16] = second compound 0.0003 µM, first compound 1 µM
[17] = second compound 0.0003 µM, first compound 3.16 µM
[18] = second compound 0.0003 µM, first compound 10 µM
[19] = second compound 0.000949 µM, first compound 0.0316 µM
[20] = second compound 0.000949 µM, first compound 0.1 µM
[21] = second compound 0.000949 µM, first compound 0.316 µM
[22] = second compound 0.000949 µM, first compound 1 µM
[23] = second compound 0.000949 µM, first compound 3.16 µM
[24] = second compound 0.000949 µM, first compound 10 µM
[25] = second compound 0.003 µM, first compound 0.0316 µM
[26] = second compound 0.003 µM, first compound 0.1 µM
[27] = second compound 0.003 µM, first compound 0.316 µM
[28] = second compound 0.003 µM, first compound 1 µM
[29] = second compound 0.003 µM, first compound 3.16 µM
[30] = second compound 0.003 µM, first compound 10 µM

**Q.** What does the source list for `Cc1cc(C)c(CNC(=O)c2cc(-c3ccc(CN4CCOCC4)cc3)cc3c2cnn3C2CCCC2)c(=O)[nH]1` + COc1cc2c(cc1O)CCNC21CSC2c3c(OC(C)=O)c(C)c4c(c3C(COC1=O)N1C(O)C3Cc5cc(C)c(OC)c(O)c5C(C21)N3C)OCO4?
**A.** IC50 (second compound 30 pM): > 10000 nM; IC50 (second compound 94.9 pM): > 10000 nM; IC50 (second compound 0.0003 µM): > 10000 nM; IC50 (second compound 0.000949 µM): > 10000 nM; IC50 (second compound 0.003 µM): < 31.6 nM; viability, T/C [1]: 106%; viability, T/C [2]: 104%; viability, T/C [3]: 105%; viability, T/C [4]: 103%; viability, T/C [5]: 97.2%; viability, T/C [6]: 105%; viability, T/C [7]: 109%; viability, T/C [8]: 101%; viability, T/C [9]: 99.5%; viability, T/C [10]: 104%; viability, T/C [11]: 107%; viability, T/C [12]: 106%; viability, T/C [13]: 103%; viability, T/C [14]: 105%; viability, T/C [15]: 105%; viability, T/C [16]: 105%; viability, T/C [17]: 102%; viability, T/C [18]: 104%; viability, T/C [19]: 87.8%; viability, T/C [20]: 94.6%; viability, T/C [21]: 91.8%; viability, T/C [22]: 83.9%; viability, T/C [23]: 85%; viability, T/C [24]: 85%; viability, T/C [25]: 6.27%; viability, T/C [26]: 7.07%; viability, T/C [27]: 9.74%; viability, T/C [28]: 5.44%; viability, T/C [29]: 5.81%; viability, T/C [30]: 3.71%

**Q.** What does the source list for `Cc1sc2c(c1C)C(c1ccc(Cl)cc1)=NC(CC(=O)Nc1ccc(O)cc1)c1nnc(C)n1-2` (stereo not given) + COc1cc2c(cc1O)CCNC21CSC2c3c(OC(C)=O)c(C)c4c(c3C(COC1=O)N1C(O)C3Cc5cc(C)c(OC)c(O)c5C(C21)N3C)OCO4?
**A.** IC50 (second compound 30 pM): 631 nM; IC50 (second compound 94.9 pM): 1020 nM; IC50 (second compound 0.0003 µM): 2540 nM; IC50 (second compound 0.000949 µM): > 3000 nM; IC50 (second compound 0.003 µM): < 9.49 nM; viability, T/C (second compound 30 pM, first compound 0.00949 µM): 94.4%; viability, T/C (second compound 30 pM, first compound 0.03 µM): 96.4%; viability, T/C (second compound 30 pM, first compound 0.0949 µM): 93.8%; viability, T/C (second compound 30 pM, first compound 0.3 µM): 69.3%; viability, T/C (second compound 30 pM, first compound 0.949 µM): 39.7%; viability, T/C (second compound 30 pM, first compound 3 µM): 21.8%; viability, T/C (second compound 94.9 pM, first compound 0.00949 µM): 103%; viability, T/C (second compound 94.9 pM, first compound 0.03 µM): 100%; viability, T/C (second compound 94.9 pM, first compound 0.0949 µM): 95%; viability, T/C (second compound 94.9 pM, first compound 0.3 µM): 80.1%; viability, T/C (second compound 94.9 pM, first compound 0.949 µM): 51.4%; viability, T/C (second compound 94.9 pM, first compound 3 µM): 26.9%; viability, T/C (second compound 0.0003 µM, first compound 0.00949 µM): 110%; viability, T/C (second compound 0.0003 µM, first compound 0.03 µM): 110%; viability, T/C (second compound 0.0003 µM, first compound 0.0949 µM): 102%; viability, T/C (second compound 0.0003 µM, first compound 0.3 µM): 88.7%; viability, T/C (second compound 0.0003 µM, first compound 0.949 µM): 65.7%; viability, T/C (second compound 0.0003 µM, first compound 3 µM): 47.4%; viability, T/C (second compound 0.000949 µM, first compound 0.00949 µM): 89.6%; viability, T/C (second compound 0.000949 µM, first compound 0.03 µM): 88%; viability, T/C (second compound 0.000949 µM, first compound 0.0949 µM): 80.9%; viability, T/C (second compound 0.000949 µM, first compound 0.3 µM): 87.3%; viability, T/C (second compound 0.000949 µM, first compound 0.949 µM): 68.2%; viability, T/C (second compound 0.000949 µM, first compound 3 µM): 52.7%; viability, T/C (second compound 0.003 µM, first compound 0.00949 µM): 6.44%; viability, T/C (second compound 0.003 µM, first compound 0.03 µM): 6.85%; viability, T/C (second compound 0.003 µM, first compound 0.0949 µM): 6.03%; viability, T/C (second compound 0.003 µM, first compound 0.3 µM): 8.32%; viability, T/C (second compound 0.003 µM, first compound 0.949 µM): 2.93%; viability, T/C (second compound 0.003 µM, first compound 3 µM): 0.8%

**Q.** Which results are given for `[2H]c1nc(C)nc([2H])c1-c1cc(NC[C@@H](C)c2cccc3c(C(=O)NC)ccnc23)ncn1` + COc1cc2c(cc1O)CCNC21CSC2c3c(OC(C)=O)c(C)c4c(c3C(COC1=O)N1C(O)C3Cc5cc(C)c(OC)c(O)c5C(C21)N3C)OCO4?
**A.** IC50 (second compound 30 pM): > 10000 nM; IC50 (second compound 94.9 pM): > 10000 nM; IC50 (second compound 0.0003 µM): > 10000 nM; IC50 (second compound 0.000949 µM): > 10000 nM; IC50 (second compound 0.003 µM): < 31.6 nM; viability, T/C [1]: 102%; viability, T/C [2]: 102%; viability, T/C [3]: 101%; viability, T/C [4]: 104%; viability, T/C [5]: 99.4%; viability, T/C [6]: 97.6%; viability, T/C [7]: 105%; viability, T/C [8]: 108%; viability, T/C [9]: 101%; viability, T/C [10]: 106%; viability, T/C [11]: 97.8%; viability, T/C [12]: 104%; viability, T/C [13]: 102%; viability, T/C [14]: 106%; viability, T/C [15]: 106%; viability, T/C [16]: 105%; viability, T/C [17]: 104%; viability, T/C [18]: 105%; viability, T/C [19]: 92.5%; viability, T/C [20]: 86%; viability, T/C [21]: 88.2%; viability, T/C [22]: 83.5%; viability, T/C [23]: 83.4%; viability, T/C [24]: 93.7%; viability, T/C [25]: 5.55%; viability, T/C [26]: 6.42%; viability, T/C [27]: 3.96%; viability, T/C [28]: 6.02%; viability, T/C [29]: 4.53%; viability, T/C [30]: 2.75%
